The results in this text go back to US9848602B2, “Use of prothioconazole to induce host defence responses” (priority 2013, dated 2017).

Each structure is given as a SMILES string.

Assay [1] has as its system Arabidopsis thaliana plants (gene expression). The assay can be described thus: Induction of salicylic acid and pathogen response pathways, Affymetrix ATH1 gene expression analysis. It is filed as in vivo. To be noted: 500 g/ha spray; for total number of differentially expressed genes: p≦0.05, vs control. As for the experimental part: Arabidopsis thaliana plants were grown on soil in climate controlled growth chambers for 33 days under defined conditions. For treatment Prothioconazole was formulated to result in a final concentration corresponding to 500 g/ha in a spray application. The plants were sprayed in biological replicates. A control group of similar grown plants was equally treated with a blank formulation. Aerial tissues of the treated plants were harvested 3 h and 6 h after treatment, frozen in liquid nitrogen and stored at −80° C. for further processing. Each biological replicate (3 per treatment and time point) consisted of a pool of 10 plants.
Total RNA was prepared from each sample using the RNeasy Midi kit from Qiagen #75142 according to the manufacturer's recommendations. The RNA was then transcribed into cDNA using Superscript II Reverse Transcriptase (Invitrogen). The biotin-labeled cRNA probes for hybridization were generated from the cDNA using the BioArray HighYield® RNA transcript labeling kit (T7) (Enzo Life Sceinces # ENZ42655-40) according the manufacturer's recommendations. The labelled cRNA probes were subsequently hybridized onto Affymetrix GeneChip Arabidopsis ATH1 Genome Arrays (cat.#900385).
The samples were analyzed using the Affymetrix GeneChip System. The resulting data were processed and analyzed using Genedata Refiner Array, Genedata Analyst, RobiNA (Lohse et al. 2012, Nucleic Acids Res) and MapMan (Usadel et al. 2009, Plant Cell Environment) software packages.

The subject of assay [2] is PR1 (pathogenesis-related protein 1) gene (AT2G14610) promoter. Kind of assay: Induction of defense gene expression, GFP reporter behind the PR1 promoter. The class given is in vivo, Arabidopsis thaliana. Particulars: 300 ppm, 3 days after spraying, mock (background) set as 1.00. As for the experimental part: Arabidopsis thaliana reporter plants containing the coding sequence of a green fluorescent protein (GFP) linked to the salicylate responsive promoter sequence of the PR1 (pathogenesis-related protein 1) gene (AT2G14610) were grown for five days and then sprayed with compounds. On the 3rd day after spraying, plant fluorescence was assessed with a MacroFluo instrument from Leica Microsystems (Wetzlar, Germany). Fluorescences were quantified with the MetaMorph Microscopy Automation & Image Analysis Software (Molecular Devices, Sunnyvale, Calif., United States).

The mark [3] stands for this setting: 3 h after treatment, >2-fold change, p≦0.05.
The mark [4] stands for this setting: 6 h after treatment, >2-fold change, p≦0.05.

With `OC(Cc1ccccc1Cl)(Cn1[nH]cnc1=S)C1(Cl)CC1` (centres unmarked) [Prothioconazole, 2-[2-(1-chlorocyclopropyl)-3-(2-chlorophenyl)-2-hydroxypropyl]-1,2-dihydro-3H-1,2,4-triazole-3-thione], in assay [1] (setting [3]), the “number of down-regulated genes” value is 142 and the “number of up-regulated genes” value is 238. Moreover, in assay [1] (3 h after treatment, >2-fold change), the “total number of differentially expressed genes” value came to 380. Also, in assay [1] (6 h after treatment), the “induction of At1g57630 [Toll-Interleukin-Resistance domain-containing protein]” value is given as 3.4 fold, the “induction of At1g66090 [TIR-NBS class of disease resistance protein]” value came out at 2.4 fold, the “induction of At3g59930 [Defensin-like protein 206]” value was 3 fold and the “induction of At4g36010 [pathogenesis-related thaumatin family protein]” value turned out to be 3.8 fold. Besides, in assay [1] (setting [4]), the “number of downregulated genes” value is 148 and the “number of up-regulated genes” value was 299. The “total number of differentially expressed genes” value in assay [1] (6 h after treatment, >2-fold change) was 447. Further, in assay [1] (after 3 h), the “induction of At1g05680 (UDP-glucose: salicylic acid glucosyltransferase)” value is recorded as 3 fold and the “induction of At2g43820 (UDP-glucose: salicylic acid glucosyltransferase)” value was determined as 2.5 fold. Also, in assay [1] (after 6 h), the “induction of At1g05680 (UDP-glucose: salicylic acid glucosyltransferase)” value is 5.5 fold and the “induction of At2g43820 (UDP-glucose: salicylic acid glucosyltransferase)” value turned out to be 2.5 fold. Further, the “Relative fluorescence of GFP” value in assay [2] amounted to 2.04.

In the case of `O=C(O)c1ccccc1O` [Salicylic acid, salicylic acid], the “Relative fluorescence of GFP” value in assay [2] is 1.96.

Take `CC(C)(C)C(O)(CCc1ccc(Cl)cc1)Cn1cncn1` (centres unmarked) [Tebuconazole]: the “Relative fluorescence of GFP” value in assay [2] was 0.73.
